Where two headings read alike, the source gives them in different places.
Columns and labels:
[1] = target: T1, thrombin receptor (PAR-1) (Homo sapiens, UniProt P25116); experiment: In vitro thrombin receptor binding assay (CHRF membranes); conditions: tritiated 721-40 radioligand, read-out: Bndg IC50 (Thrombin receptor binding)
T1 construct: CHRF membranes (Jones, Biochim. Biophys. Acta 1992, 1136, 272) are thawed from −70° C; endogenous in cells; host or cells: CHRF cell membranes
T1 sequence (P25116 22-425): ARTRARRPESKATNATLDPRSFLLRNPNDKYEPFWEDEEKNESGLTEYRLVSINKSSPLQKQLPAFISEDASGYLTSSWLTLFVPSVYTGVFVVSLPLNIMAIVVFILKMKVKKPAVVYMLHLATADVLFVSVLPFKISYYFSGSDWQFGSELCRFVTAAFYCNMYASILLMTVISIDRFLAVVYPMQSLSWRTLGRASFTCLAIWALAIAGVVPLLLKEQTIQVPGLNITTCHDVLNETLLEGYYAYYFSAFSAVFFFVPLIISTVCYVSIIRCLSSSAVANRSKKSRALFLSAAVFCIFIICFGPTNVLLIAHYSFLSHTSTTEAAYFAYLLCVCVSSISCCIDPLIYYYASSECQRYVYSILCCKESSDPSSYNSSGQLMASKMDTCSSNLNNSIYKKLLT
In short: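 CHRF cell membranes incubated 30 min with tritiated peptide agonist 721–40 and compound at 3.7 μg/mL final (0.6% DMSO) in HEPES/MgCl2/BSA buffer. Nonspecific binding defined with unlabeled 721–40; bound radioactivity counted after filtration onto PEI-treated filters.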

gel-filtered platelets = experiment: In vitro inhibition of thrombin-induced gel-filtered platelet aggregation; type: cell-based; conditions: human gel-filtered platelets, agonist thrombin 50 μL of 1 unit/mL, read-out: Thrmb IC50 (Thrombin-induced aggregation of gel-filtered platelets)
In short: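 Gel-filtered (Sepharose 2B) human platelets from citrated PRP, 2×10^7 per sample, in Tyrode's buffer pH 7.4 with BSA and added calcium, preincubated with test compound. Aggregation induced by thrombin (50 μL of 1 unit/mL) and followed as light transmission over 3 min. Inhibition is taken relative to control-treated platelets.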

Row | Structure (SMILES) | IC50 [1] [nM] | IC50 (gel-filtered platelets; Platelet) [nM] | IC50 (gel-filtered platelets) [nM]
1 | C=CCOC(=O)[C@H](CCCN)NC(=O)[C@H](Cc1ccc(F)c(F)c1)NC(=O)Nc1ccc2c(CN3CCCC3)cn(Cc3c(Cl)cccc3Cl)c2c1 [Compound 93] | 500 | 740 | –
2 | CC(=O)NCCC[C@H](NC(=O)[C@H](Cc1ccc(F)c(F)c1)NC(=O)Nc1ccc2c(CN3CCCC3)cn(Cc3c(Cl)cccc3Cl)c2c1)C(=O)NCc1ccccc1 [Compound 94] | 810 | 10000 | –
3 | CC(=N)NCCC[C@H](NC(=O)[C@H](Cc1ccc(F)c(F)c1)NC(=O)Nc1ccc2c(CN3CCCC3)cn(Cc3c(Cl)cccc3Cl)c2c1)C(=O)NCc1ccccc1 [Compound 95] | 370 | 410 | –
4 | NCCC[C@H](NC(=O)[C@H](Cc1cccc(F)c1)NC(=O)Nc1ccc2c(CN3CCCC3)cn(Cc3c(Cl)cccc3Cl)c2c1)C(=O)NC1Cc2ccccc2C1 [Compound 96] | 2800 | 1000 | –
5 | C=CCN(C)Cc1cn(Cc2c(Cl)cccc2Cl)c2cc(NC(=O)N[C@@H](Cc3cccc(F)c3)C(=O)N[C@@H](CCCN)C(=O)NC3Cc4ccccc4C3)ccc12 [Compound 97] | 1700 | 18800 | –
6 | NCCC[C@H](NC(=O)[C@H](Cc1ccc(F)c(F)c1)NC(=O)Nc1ccc2c(CN3CCCC3)cn(Cc3c(Cl)cccc3Cl)c2c1)C(=O)NCc1ccncc1 [Compound 98] | 2300 | 1800 | –
7 | NCCC[C@H](NC(=O)[C@H](Cc1ccc(Cl)cc1)NC(=O)Nc1ccc2c(CN3CCCC3)cn(Cc3c(Cl)cccc3Cl)c2c1)C(=O)NCc1ccccc1Cl [Compound 99] | 1400 | 740 | –
8 | CN(C)CCC[C@H](NC(=O)[C@H](Cc1ccc(F)c(F)c1)NC(=O)Nc1ccc2c(CN3CCCC3)cn(Cc3c(Cl)cccc3Cl)c2c1)C(=O)NCc1ccccc1 [Compound 100] | 1300 | 600 | –
9 | NC[C@H](NC(=O)[C@H](Cc1ccc(F)c(F)c1)NC(=O)Nc1ccc2c(CN3CCCC3)cn(Cc3c(Cl)cccc3Cl)c2c1)C(=O)NCc1ccccc1 [Compound 101] | 920 | 410 | –
10 | NCC[C@H](NC(=O)[C@H](Cc1ccc(F)c(F)c1)NC(=O)Nc1ccc2c(CN3CCCC3)cn(Cc3c(Cl)cccc3Cl)c2c1)C(=O)NCc1ccccc1 [Compound 102, Benzenepropanamide, N-[(1S)-3-amino-1-[[(phenylmethyl)amino]carbonyl]propyl]-α-[[[[1-[(2,6-dichlorophenyl)methyl]-3-(1-pyrrolidinylmethyl)-1H-indol-6-yl]amino]carbonyl]amino]-3,4-difluoro-, (αS)-] | 500 | 160 | –
11 | NC(=O)CC[C@H](NC(=O)[C@H](Cc1ccc(F)c(F)c1)NC(=O)Nc1ccc2c(CN3CCCC3)cn(Cc3c(Cl)cccc3Cl)c2c1)C(=O)NCc1ccccc1 [Compound 103] | 1200 | 540 | –
12 | CSCC[C@H](NC(=O)[C@H](Cc1ccc(F)c(F)c1)NC(=O)Nc1ccc2c(CN3CCCC3)cn(Cc3c(Cl)cccc3Cl)c2c1)C(=O)NCc1ccccc1 [Compound 104] | 11200 | 530 | –
13 | O=C(Nc1ccc2c(CN3CCCC3)cn(Cc3c(Cl)cccc3Cl)c2c1)N[C@@H](Cc1ccc(F)c(F)c1)C(=O)N[C@@H](Cc1ccncc1)C(=O)NCc1ccccc1 [Compound 105] | 7500 | 640 | –
14 | Nc1ccc(C[C@H](NC(=O)[C@H](Cc2ccc(F)c(F)c2)NC(=O)Nc2ccc3c(CN4CCCC4)cn(Cc4c(Cl)cccc4Cl)c3c2)C(=O)NCc2ccccc2)cc1 [Compound 106] | 3300 | 1100 | –
15 | N=C(N)NCCC[C@H](NC(=O)[C@@H]1CCCN1C(=O)Nc1ccc2c(CN3CCCC3)cn(Cc3c(Cl)cccc3Cl)c2c1)C(=O)NCc1ccccc1 [Compound 107] | 8000 | 1800 | –
16 | N=C(N)NCCC[C@H](NC(=O)CCNC(=O)[C@H](Cc1ccc(F)c(F)c1)NC(=O)Nc1ccc2c(CN3CCCC3)cn(Cc3c(Cl)cccc3Cl)c2c1)C(=O)NCc1ccccc1 [Compound 108] | 2600 | 3700 | –
17 | NCCC[C@H](NC(=O)[C@H](Cc1ccc(F)c(F)c1)NC(=O)Nc1ccc2c(CN3CCCC3)cn(Cc3c(Cl)cccc3Cl)c2c1)C(=O)NCCc1ccncc1 [Compound 109] | 610 | 840 | –
18 | CCN(Cc1ccncc1)C(=O)[C@H](CCCN)NC(=O)[C@H](Cc1ccc(F)c(F)c1)NC(=O)Nc1ccc2c(CN3CCCC3)cn(Cc3c(Cl)cccc3Cl)c2c1 [Compound 110] | 2900 | 3700 | –
19 | CN(Cc1ccccc1)C(=O)[C@H](CCCN)NC(=O)[C@H](Cc1ccc(F)c(F)c1)NC(=O)Nc1ccc2c(CN3CCCC3)cn(Cc3c(Cl)cccc3Cl)c2c1 [Compound 111] | 1900 | 3200 | –

Row | Structure (SMILES) | IC50 [1] [nM] | IC50 (gel-filtered platelets; Platelet) [nM] | IC50 (gel-filtered platelets) [nM]
20 | NCCC[C@H](NC(=O)[C@H](Cc1ccc(F)c(F)c1)NC(=O)Nc1ccc2c(CN3CCCC3)cn(Cc3c(Cl)cccc3Cl)c2c1)C(=O)NCc1ccc(Cl)c(Cl)c1 [Compound 112] | 2000 | 930 | –
21 | NCCC[C@H](NC(=O)[C@H](Cc1ccc(F)c(F)c1)NC(=O)Nc1ccc2c(CN3CCCC3)cn(Cc3c(Cl)cccc3Cl)c2c1)C(=O)NCc1cccs1 [Compound 113] | 850 | 720 | –
22 | CN1CCN(C(=O)[C@H](CCCN)NC(=O)[C@H](Cc2ccc(F)c(F)c2)NC(=O)Nc2ccc3c(CN4CCCC4)cn(Cc4c(Cl)cccc4Cl)c3c2)CC1 [Compound 114] | 260 | 2400 | –
23 | NCCC[C@H](NC(=O)[C@H](Cc1ccc(F)c(F)c1)NC(=O)Nc1ccc2c(CN3CCCC3)cn(Cc3c(Cl)cccc3Cl)c2c1)C(=O)N1CCCCC1 [Compound 115] | 370 | 2700 | –
24 | NCCC[C@H](NC(=O)[C@H](Cc1ccc(F)c(F)c1)NC(=O)Nc1ccc2c(CN3CCCC3)cn(Cc3c(Cl)cccc3Cl)c2c1)C(=O)NCc1cccnc1 [Compound 116] | 410 | 1100 | –
25 | NCCC[C@H](NC(=O)[C@H](Cc1ccc(F)c(F)c1)NC(=O)Nc1ccc2c(CN3CCCC3)cn(Cc3c(Cl)cccc3Cl)c2c1)C(=O)NCc1ccccn1 [Compound 117] | 1000 | 4100 | –
26 | CC(=N)NCC[C@H](NC(=O)[C@H](Cc1ccc(F)c(F)c1)NC(=O)Nc1ccc2c(CN3CCCC3)cn(Cc3c(Cl)cccc3Cl)c2c1)C(=O)NCc1ccccc1 [Compound 118] | 430 | 280 | –
27 | CN(Cc1cn(Cc2c(Cl)cccc2Cl)c2cc(NC(=O)N[C@@H](Cc3ccc(Cl)cc3)C(=O)N[C@@H](CCCN)C(=O)NCCc3ccccc3Cl)ccc12)C1CCCC1 [Compound 119] | 6200 | 3200 | –
28 | CN(Cc1cn(Cc2c(Cl)cccc2Cl)c2cc(NC(=O)N[C@@H](Cc3ccc(Cl)cc3)C(=O)N[C@@H](CCCN)C(=O)NC3Cc4ccccc4C3)ccc12)CC1OCCO1 [Compound 122] | 10500 | 3500 | –
29 | Cn1cnc(CCNC(=O)[C@H](CCCN)NC(=O)[C@H](Cc2ccc(F)c(F)c2)NC(=O)Nc2ccc3c(CN4CCCC4)cn(Cc4c(Cl)cccc4Cl)c3c2)c1 [Compound 124] | 1200 | – | 440
30 | NCCC[C@H](NC(=O)[C@H](Cc1ccc(F)c(F)c1)NC(=O)Nc1ccc2c(CN3CCCC3)cn(Cc3c(Cl)cccc3Cl)c2c1)C(=O)NC1CCCC1 [Compound 125] | 660 | 430 | –
31 | CN(C)CCNC(=O)[C@H](CCCN)NC(=O)[C@H](Cc1ccc(F)c(F)c1)NC(=O)Nc1ccc2c(CN3CCCC3)cn(Cc3c(Cl)cccc3Cl)c2c1 [Compound 126] | 1500 | 460 | –
32 | NCCC[C@H](NC(=O)[C@H](Cc1ccc(F)c(F)c1)NC(=O)Nc1ccc2c(CN3CCCC3)cn(Cc3c(Cl)cccc3Cl)c2c1)C(=O)Nc1ccccc1 [Compound 127] | 2400 | 930 | –
33 | NCC[C@H](NC(=O)[C@H](CCc1ccccc1)NC(=O)Nc1ccc2c(CN3CCCC3)cn(Cc3c(Cl)cccc3Cl)c2c1)C(=O)NCc1ccccc1 [Compound 128] | 3400 | 18800 | –
34 | NCC[C@H](NC(=O)[C@H](Cc1ccc2ccccc2c1)NC(=O)Nc1ccc2c(CN3CCCC3)cn(Cc3c(Cl)cccc3Cl)c2c1)C(=O)NCc1ccccc1 [Compound 129] | 2500 | 860 | –
35 | NCC[C@H](NC(=O)[C@H](Cc1cccnc1)NC(=O)Nc1ccc2c(CN3CCCC3)cn(Cc3c(Cl)cccc3Cl)c2c1)C(=O)NCc1ccccc1 [Compound 130] | 4800 | 27800 | –
36 | NCC[C@H](NC(=O)[C@H](Cc1cccs1)NC(=O)Nc1ccc2c(CN3CCCC3)cn(Cc3c(Cl)cccc3Cl)c2c1)C(=O)NCc1ccccc1 [Compound 131] | 1900 | 940 | –
37 | NCC[C@H](NC(=O)[C@H](Cc1cscn1)NC(=O)Nc1ccc2c(CN3CCCC3)cn(Cc3c(Cl)cccc3Cl)c2c1)C(=O)NCc1ccccc1 [Compound 132] | 4200 | 22000 | –
38 | NCCNC(=O)[C@H](Cc1ccccc1)NC(=O)[C@H](Cc1ccc(Cl)cc1)NC(=O)Nc1ccc2c(CN3CCCC3)cn(Cc3c(Cl)cccc3Cl)c2c1 [Compound 133] | 1500 | 860 | –
